In ChEMBL document CHEMBL3885861, “Open TG-GATES”:

Species on record: Rattus norvegicus
Assay: Open TG-GATES - Regimen: Single
Format: toxicity, organism-based, Sprague-Dawley
Set-up: regimen Single, gender Male, age 6 weeks
Settings: in vivo, po, 50 mg/kg, route gavage, dose level High; for APTT / Bas / Eos / Fbg / Hb / Ht / Lym / MCH / MCHC / MCV / Mono / Neu / PT / Plat / RBC / Ret / WBC: tissue Blood; for LIVER: tissue Liver; for A/G / ALP / ALT / AST / BUN / CRE / Ca / Cl / DBIL / GLC / IP / K / LDH / Na / PL / RALB / TBIL / TC / TG / TP / gamma-GTP: tissue Plasma

C=C(C)[C@H]1Cc2c(ccc3c2O[C@@H]2COc4cc(OC)c(OC)cc4[C@@H]2C3=O)O1 [ROTENONE]
TERMINAL_BW (3 h): 195.9 g | APTT (3 h): 15.9 s | Bas (3 h): 0% | Eos (3 h): 0.8% | Fbg (3 h): 204.8 mg/dL | Hb (3 h): 13.2 g/dL | Ht (3 h): 40.1% | Lym (3 h): 73.4% | MCH (3 h): 20.7 pg | MCHC (3 h): 32.8% | MCV (3 h): 63.1 fL | Mono (3 h): 9.2% | Neu (3 h): 17.4% | PT (3 h): 12.6 s | Plat (3 h): 124.2 x10_4/uL | RBC (3 h): 636.2 x10_4/ul | Ret (3 h): 8.8% | WBC (3 h): 89.8 x10_2/uL | LIVER (3 h): 8.5 g | A/G (3 h): 2.3 | ALP (3 h): 1894.6 IU/L | ALT (3 h): 39 IU/L | AST (3 h): 79.4 IU/L | BUN (3 h): 13.8 mg/dL | CRE (3 h): 0.4 mg/dL | Ca (3 h): 11.1 mg/dL | Cl (3 h): 103.6 meq/L | DBIL (3 h): 0.008 mg/dL | GLC (3 h): 182.2 mg/dL | IP (3 h): 8.9 mg/dL | K (3 h): 3.9 meq/L | LDH (3 h): 92.6 IU/L | Na (3 h): 140.6 meq/L | PL (3 h): 123.2 mg/dL | RALB (3 h): 3.7 g/dL | TBIL (3 h): 0.036 mg/dL | TC (3 h): 77.4 mg/dL | TG (3 h): 49.4 mg/dL | TP (3 h): 5.3 g/dL | gamma-GTP (3 h): 1 IU/L | TERMINAL_BW (6 h): 197.3 g | APTT (6 h): 16.8 s | Bas (6 h): 0% | Eos (6 h): 0% | Fbg (6 h): 213.4 mg/dL | Hb (6 h): 13.3 g/dL | Ht (6 h): 40.7% | Lym (6 h): 77.8% | MCH (6 h): 20.8 pg | MCHC (6 h): 32.7% | MCV (6 h): 63.7 fL | Mono (6 h): 6.6% | Neu (6 h): 15% | PT (6 h): 12.6 s | Plat (6 h): 136.6 x10_4/uL | RBC (6 h): 638.2 x10_4/ul | Ret (6 h): 9.1% | WBC (6 h): 84.6 x10_2/uL | LIVER (6 h): 8.2 g | A/G (6 h): 2.3 | ALP (6 h): 1068.4 IU/L | ALT (6 h): 41.2 IU/L | AST (6 h): 75 IU/L | BUN (6 h): 11.4 mg/dL | CRE (6 h): 0.4 mg/dL | Ca (6 h): 11.3 mg/dL | Cl (6 h): 103.8 meq/L | DBIL (6 h): 0.01 mg/dL | GLC (6 h): 185.8 mg/dL | IP (6 h): 9.9 mg/dL | K (6 h): 3.9 meq/L | LDH (6 h): 96 IU/L | Na (6 h): 140.6 meq/L | PL (6 h): 145.2 mg/dL | RALB (6 h): 3.7 g/dL | TBIL (6 h): 0.044 mg/dL | TC (6 h): 84.8 mg/dL | TG (6 h): 45.6 mg/dL | TP (6 h): 5.4 g/dL | gamma-GTP (6 h): 0.2 IU/L | TERMINAL_BW (9 h): 196.2 g | APTT (9 h): 16.7 s | Bas (9 h): 0% | Eos (9 h): 0.6% | Fbg (9 h): 221.4 mg/dL | Hb (9 h): 13 g/dL | Ht (9 h): 39.5% | Lym (9 h): 82.2% | MCH (9 h): 21.4 pg | MCHC (9 h): 33% | MCV (9 h): 64.8 fL | Mono (9 h): 4.6% | Neu (9 h): 12.6% | PT (9 h): 12.6 s | Plat (9 h): 137 x10_4/uL | RBC (9 h): 610 x10_4/ul | Ret (9 h): 8.7% | WBC (9 h): 86.6 x10_2/uL | LIVER (9 h): 8 g | A/G (9 h): 2.3 | ALP (9 h): 1128.2 IU/L | ALT (9 h): 30.6 IU/L | AST (9 h): 66.8 IU/L | BUN (9 h): 11.8 mg/dL | CRE (9 h): 0.4 mg/dL | Ca (9 h): 11 mg/dL | Cl (9 h): 104.2 meq/L | DBIL (9 h): 0.01 mg/dL | GLC (9 h): 171.2 mg/dL | IP (9 h): 10.2 mg/dL | K (9 h): 4.1 meq/L | LDH (9 h): 105 IU/L | Na (9 h): 139.6 meq/L | PL (9 h): 135.8 mg/dL | RALB (9 h): 3.8 g/dL | TBIL (9 h): 0.048 mg/dL | TC (9 h): 87.6 mg/dL | TG (9 h): 34.8 mg/dL | TP (9 h): 5.4 g/dL | gamma-GTP (9 h): 1 IU/L | TERMINAL_BW (24 h): 202.8 g | APTT (24 h): 16.4 s | Bas (24 h): 0% | Eos (24 h): 0.8% | Fbg (24 h): 198.6 mg/dL | Hb (24 h): 13.3 g/dL | Ht (24 h): 40.7% | Lym (24 h): 83.8% | MCH (24 h): 20.6 pg | MCHC (24 h): 32.7% | MCV (24 h): 63 fL | Mono (24 h): 4.6% | Neu (24 h): 10.8% | PT (24 h): 12.4 s | Plat (24 h): 128.6 x10_4/uL | RBC (24 h): 648.4 x10_4/ul | Ret (24 h): 7.3% | WBC (24 h): 67.6 x10_2/uL | LIVER (24 h): 8.4 g | A/G (24 h): 2.5 | ALP (24 h): 1301.4 IU/L | ALT (24 h): 25.8 IU/L | AST (24 h): 61.4 IU/L | BUN (24 h): 13.6 mg/dL | CRE (24 h): 0.4 mg/dL | Ca (24 h): 11.8 mg/dL | Cl (24 h): 104 meq/L | DBIL (24 h): 0.01 mg/dL | GLC (24 h): 185.8 mg/dL | IP (24 h): 8.3 mg/dL | K (24 h): 4.1 meq/L | LDH (24 h): 66.4 IU/L | Na (24 h): 140.2 meq/L | PL (24 h): 128 mg/dL | RALB (24 h): 4 g/dL | TBIL (24 h): 0.042 mg/dL | TC (24 h): 74.2 mg/dL | TG (24 h): 46.4 mg/dL | TP (24 h): 5.5 g/dL | gamma-GTP (24 h): 0.6 IU/L
